Experiment [1] concerns phosphorylated Met. The conditions noted are these: read-out: IC50 on phosphorylated Met; cited from earlier work.
Experiment [2] has as its system unphosphorylated Met. The conditions noted are these: cited from earlier work.
Experiment [3] has as its system phosphorylated enzyme (c-Met). The conditions noted are these: phosphorylated vs unphosphorylated enzyme; cited from earlier work.
Experiment [4] has as its target phosphorylated c-Met (Homo sapiens, UniProt P08581). Put plainly: c-Met kinase HTRF assay, phosphorylated form. The conditions noted are these: IC50 on the phosphorylated form. On the technique in general: In TR-FRET formats the signal depends on donor and acceptor labels being close together.
For experiment [5], the system named is SNU5 gastric cancer cell line in which c-Met is amplified. The experiment in a line: SNU5 proliferation assay. It is filed as cell-based. The conditions noted are these: Homo sapiens, SNU-5, read-out: IC50 in SNU5 proliferation assays.
For experiment [6], the target named is unphosphorylated c-Met (Homo sapiens, UniProt P08581). The experiment in a line: c-Met kinase HTRF assay, unphosphorylated form. It is filed as biochemical.
Sequence of unphosphorylated c-Met (P08581 956-1390 limits assumed): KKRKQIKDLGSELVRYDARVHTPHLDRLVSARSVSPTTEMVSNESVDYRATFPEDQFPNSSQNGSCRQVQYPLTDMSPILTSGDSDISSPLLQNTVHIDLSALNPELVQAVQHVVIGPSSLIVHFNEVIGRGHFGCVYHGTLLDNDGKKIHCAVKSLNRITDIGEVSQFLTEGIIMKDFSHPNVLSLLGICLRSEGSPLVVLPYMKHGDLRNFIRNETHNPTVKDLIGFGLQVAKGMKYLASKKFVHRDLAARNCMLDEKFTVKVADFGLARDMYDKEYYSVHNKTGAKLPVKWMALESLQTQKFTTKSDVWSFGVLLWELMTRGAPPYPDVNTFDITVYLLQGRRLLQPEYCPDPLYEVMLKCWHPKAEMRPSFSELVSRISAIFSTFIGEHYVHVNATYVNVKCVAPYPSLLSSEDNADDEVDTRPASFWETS

Sequence of phosphorylated c-Met (P08581 956-1390 limits assumed): as above

As for `COc1cc2c(Oc3ccc(-c4cnc(Cc5ccccc5)n(C)c4=O)cc3F)ccnc2cc1OCCCN1CCOCC1` [AM7, 5-(3-fluoro-4-((6-(methyloxy)-7-((3-(4 morpholinyl)prpyl)oxy)-4-quinolinyl)oxy)phenyl)-3-methyl-2-(phenylmethyl)-4(3H)-pyrimidin-one], the results for the IC50 in experiment [1] and in experiment [2] (read-out: IC50 on unphosphorylated Met) were 17 nM and 5 nM, respectively. For the same molecule, in experiment [2], the “fold more potent on unphosphorylated Met” value was “more than 3 fold”.

Take `CN(C[C@@H]1COCCO1)S(=O)(=O)Nc1ccc2ccc3ncc(-c4cnn(C)c4)cc3c(=O)c2c1` [MK2461]: the “binds to the phosphorylated enzyme tighter” value in experiment [3] is on record as 6 fold.

Turning to `Cc1[nH]c(/C=C2\C(=O)Nc3ccc(S(=O)(=O)N(C)c4cccc(Cl)c4)cc32)c(C)c1C(=O)N1CCN(C)CC1` [SU11274], the IC50 in experiment [4] was determined as 275 nM; in experiment [5], 30 nM. In experiment [6], the “difference in potency, phosphorylated vs unphosphorylated form” value was determined as 55 fold.
